For data set [1], the target named is T1, c-Mer (Homo sapiens (Human), UniProt Q12866). The settings on record: data disclosed in U.S. Pat. No. 9,981,975; cited from earlier work.
Data set [2] has as its target T2, phosphor-Axl (Homo sapiens (Human), UniProt P30530). The settings on record: data disclosed in U.S. Pat. No. 9,981,975; cited from earlier work.
The target in data set [3] is T1, c-Mer. The experiment in a line: TAM enzymatic assay (HTRF), Mer. The format is biochemical. On the procedure:
(§1) The kinase assay buffer contained 50 mM HEPES, pH7.5, 10 mM MgCl2, 1 mM EGTA, 0.01% NP-40 and 2 mM DTT. 0.1 ul test compounds dissolved in DMSO were transferred from compound plates to white 384-well assay plates (Greiner […] plates). The final concentration of DMSO was 1.25%. Enzyme solutions of 5.1 nM phosphor-Axl, or 0.0625 nM c-Mer (Carna Biosciences, 08-108), or 0.366 nM Tyro3 (Life Technologies, PR7480A) were prepared in assay buffer. A 1 mM stock solution of peptide substrate Biotin-[…]-amide SEQ ID NO: 1 (Quality Controlled Biochemicals, MA) dissolved in DMSO was diluted to 1 uM in assay buffer containing 2000 uM ATP. 4 ul enzyme solution (or assay buffer for the enzyme blank) was added to the appropriate wells in each plate, and then 4 ul/well substrate solution was added to initiate the reaction. The plate was protected from light and incubated at room temperature for 60 min. […] The plate was incubated for 1 h at room temperature, and HTRF (homogenous time resolved fluorescence) signal was measured on a PHERAstar FS plate reader (BMG labtech). Percentage of inhibition was calculated for each concentration and IC50 value was generated from curve fitting with GraphPad Prism software.

Data set [4] in a line: Solubility study in aqueous surfactant solutions. In kind it is physicochemical. The settings on record: thermodynamic from solid, 37° C., after 60 minutes stirring, theoretical maximum 0.20 mg/ml, read-out: Concentration (solubility). On the procedure:
The solubility of Compound I maleate was determined in aqueous solution in the presence of several surfactants at 37° C. The surfactants included sodium lauryl sulfate (SLS), poloxamer 188, and poloxamer 407 at a concentration of 0.2% (w/v) in water; a vessel without surfactant was included as a control. The experiment was performed in a Distek 2100 dissolution bath using 500 ml of media stirred at 100 RPM (USP type II dissolution apparatus). 100 mg of drug substance (free base equivalent) was added to the media to give a theoretical maximum concentration of 0.20 mg/ml. 5 ml samples were taken and filtered with a 0.45 micron GHP filter prior to analysis by HPLC. Listed below are the observed concentrations for the samples after 60 minutes of stirring time.

The target in data set [5] is T2, phosphor-Axl. The experiment in a line: TAM enzymatic assay (HTRF), Axl. The format is biochemical. On the procedure: Axl Autophosphorylation Assay
Autophosphorylation of Axl was carried out by incubating the recombinant Axl protein (Life Technologies, PV4275) in buffer containing 50 mM Tris, pH7.5, 0.2 mg/ml Axl, 5 mM ATP, 20 mM MgCl2 and 2 mM DTT at room temperature for 1 hour.
as §1, with “reaction.” for “reaction. The plate was protected from light and incubated at room temperature for 60 min.”

Where a name gives a salt, the structure may show the parent alone. Read-outs that look alike come from different tables or passages of the source. Some results are limits rather than exact numbers.

T2 sequence (P30530 26-894): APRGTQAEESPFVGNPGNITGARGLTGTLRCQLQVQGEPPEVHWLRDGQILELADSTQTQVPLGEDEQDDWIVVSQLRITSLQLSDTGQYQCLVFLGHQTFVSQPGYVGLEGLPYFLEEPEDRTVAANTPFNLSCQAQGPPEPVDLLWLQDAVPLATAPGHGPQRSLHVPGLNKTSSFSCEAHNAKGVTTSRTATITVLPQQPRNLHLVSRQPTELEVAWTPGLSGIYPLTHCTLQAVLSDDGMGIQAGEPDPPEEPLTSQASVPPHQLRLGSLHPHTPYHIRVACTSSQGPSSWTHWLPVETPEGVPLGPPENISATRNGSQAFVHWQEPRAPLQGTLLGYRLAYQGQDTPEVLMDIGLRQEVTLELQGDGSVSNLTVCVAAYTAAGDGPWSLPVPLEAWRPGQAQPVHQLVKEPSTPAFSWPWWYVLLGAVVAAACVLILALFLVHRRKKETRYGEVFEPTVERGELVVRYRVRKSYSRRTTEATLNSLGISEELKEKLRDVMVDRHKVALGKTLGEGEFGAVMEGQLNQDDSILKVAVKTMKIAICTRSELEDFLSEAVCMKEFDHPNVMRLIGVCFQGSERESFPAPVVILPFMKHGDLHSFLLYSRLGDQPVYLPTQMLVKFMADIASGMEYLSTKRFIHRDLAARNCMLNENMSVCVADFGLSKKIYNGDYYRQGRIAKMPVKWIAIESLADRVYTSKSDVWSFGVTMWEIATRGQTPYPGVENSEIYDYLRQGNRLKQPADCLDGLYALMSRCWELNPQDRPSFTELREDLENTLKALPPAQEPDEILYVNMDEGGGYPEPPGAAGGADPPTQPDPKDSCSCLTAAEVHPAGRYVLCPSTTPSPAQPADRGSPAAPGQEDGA
T1 sequence (Q12866 21-999): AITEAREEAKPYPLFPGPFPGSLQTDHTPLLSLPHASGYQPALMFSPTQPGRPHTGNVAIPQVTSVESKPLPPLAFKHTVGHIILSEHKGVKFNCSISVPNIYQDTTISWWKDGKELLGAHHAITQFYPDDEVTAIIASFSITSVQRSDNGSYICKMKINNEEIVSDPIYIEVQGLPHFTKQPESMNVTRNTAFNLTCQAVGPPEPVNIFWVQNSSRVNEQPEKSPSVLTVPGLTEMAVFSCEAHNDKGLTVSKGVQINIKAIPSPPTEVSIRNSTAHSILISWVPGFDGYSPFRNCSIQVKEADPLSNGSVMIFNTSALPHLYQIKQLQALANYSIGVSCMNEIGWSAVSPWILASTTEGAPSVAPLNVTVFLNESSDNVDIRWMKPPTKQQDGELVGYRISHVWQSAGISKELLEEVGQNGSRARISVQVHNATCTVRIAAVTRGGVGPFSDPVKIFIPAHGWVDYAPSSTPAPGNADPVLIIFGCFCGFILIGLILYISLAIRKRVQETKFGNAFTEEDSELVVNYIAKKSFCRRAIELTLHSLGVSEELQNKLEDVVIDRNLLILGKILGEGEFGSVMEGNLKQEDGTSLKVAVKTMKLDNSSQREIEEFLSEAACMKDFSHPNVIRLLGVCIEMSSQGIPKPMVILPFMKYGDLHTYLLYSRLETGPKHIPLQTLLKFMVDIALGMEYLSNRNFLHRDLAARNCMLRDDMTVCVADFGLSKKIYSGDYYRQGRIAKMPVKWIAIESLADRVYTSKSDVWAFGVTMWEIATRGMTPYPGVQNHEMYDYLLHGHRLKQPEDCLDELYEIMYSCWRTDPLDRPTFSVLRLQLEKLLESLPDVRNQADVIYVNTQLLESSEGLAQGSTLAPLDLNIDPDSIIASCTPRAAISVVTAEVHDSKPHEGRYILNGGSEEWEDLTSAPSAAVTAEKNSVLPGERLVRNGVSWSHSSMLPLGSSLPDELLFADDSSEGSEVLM

As for `CC(C)C(=O)N1CCC(c2cc(-c3ccc(NC(=O)c4cn(C(C)C)c(=O)n(-c5ccccn5)c4=O)cc3)c3c(N)ncnn23)CC1` [Compound I trifluoroacetic acid salt], the IC50 on c-Mer [1] and on phosphor-Axl [2] was under 5 nM in each case.

In the case of `CC(C)C(=O)N1CCC(c2cc(-c3ccc(NC(=O)c4cn(C(C)C)c(=O)n(-c5ccccn5)c4=O)cc3)c3c(N)ncnn23)CC1.O=C(O)/C=C\C(=O)O` [Compound I maleate, N-(4-(4-amino-7-(1-isobutyrylpiperidin-4-yl)pyrrolo[2,1-f][1,2,4]triazin-5-yl)phenyl)-1-isopropyl-2,4-dioxo-3-(pyridin-2-yl)-1,2,3,4-tetrahydropyrimidine-5-carboxamide maleate], the concentration for half-maximal inhibition (IC50) at c-Mer [3] and on phosphor-Axl [5] was under 5 nM each time. Moreover, the solubility at 60 min in data set [4] (0.2% (w/v) poloxamer 188 in water, aqueous with cosolvent or surfactant or cyclodextrin, 0.2% Poloxamer 188 in water) was 18 µg/mL; in data set [4] (0.2% (w/v) poloxamer 407 in water, aqueous with cosolvent or surfactant or cyclodextrin, 0.2% Poloxamer 407 in water), 9 µg/mL; in data set [4] (0.2% (w/v) sodium lauryl sulfate in water, aqueous with cosolvent or surfactant or cyclodextrin, 0.2% SLS in water) it was over 200 µg/mL; in data set [4] (water without surfactant (control), water (no surfactant)) it was 7 µg/mL.

Source of the values: patent publication US11241438B2, “Formulations of an AXL/MER inhibitor” (Incyte Corporation, priority 2018, dated 2022).
